From patent publication US20250312499A1, “KISSPEPTIN RECEPTOR (KISS1R) TARGETED THERAPEUTICS AND USES THEREOF” (priority 2024, published 2025)
Numbered stars: 1 amine (or outer) side, 2 acyl side, 3 side chain; on linkers, the order of the positions; unused ones are H or OH. Square brackets hold non-standard residues; d marks the D form. Peptide text beside a SMILES is read from it. * marks the point of attachment. DOTA = O=C(O)CN1CCN(CC(=O)O)CCN(CC(=O)*)CCN(CC(=O)O)CC1; Ala(9-anthryl) = N[C@@H](Cc1c2ccccc2cc2ccccc12)C(=O)O; Gly(N-(3-F-4-Me-benzyl)) = Cc1ccc(CNCC(=O)*)cc1F; Propanoyl(3-(MeO(CH2CH2O)2)) = COCCOCCOCCC(=O)*; X16 = O=C(c1ccc(-c2ccccc2)c(OCCCN[*:1])c1)[*:2]; Api(1-amidino) = N=C(N)N1CCC(N)(C(=O)O)CC1; Hydrocinnamoyl(4-Me) = Cc1ccc(CCC(=O)*)cc1; Hydrocinnamoyl(4-I) = O=C(CCc1ccc(I)cc1)*; Phe(4-CN) = N#Cc1ccc(C[C@H](N)C(=O)O)cc1; Phe(3-F) = N[C@@H](Cc1cccc(F)c1)C(=O)O; d2Nal = N[C@H](Cc1ccc2ccccc2c1)C(=O)O; Trx = NC[C@H]1CC[C@H](C(=O)O)CC1; X1 = O=C(CN1CCC(N[*:1])CC1)[*:2]; 4Pal = N[C@@H](Cc1ccncc1)C(=O)O; d4Pal = N[C@H](Cc1ccncc1)C(=O)O; Cha = N[C@@H](CC1CCCCC1)C(=O)O; 4Amb = NCc1ccc(C(=O)O)cc1; Api = NC1(C(=O)O)CCNCC1; PEG2 = NCCOCCOCCC(=O)O; Ahx = NCCCCCC(=O)O; azaGly = NNC(=O)O; Sar = CNCC(=O)O

These compounds were tested against human kisspeptin receptor (Homo sapiens (Human), UniProt Q969F8) (assay: Human KISS1R binding assay (membrane competition binding)). Conditions: 90 min at room temperature; competition with 0.2 nM [125I]-metastin (45-54); Flp-In T-Rex 293 kisspeptin membranes; metal complexes nonradioactive Ga, In, Lu; read-out: hKiSSR Binding Ki (90 min).
Procedure, shortened: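 Radioligand competition: 0.2 nM [125I]-metastin (45-54) displaced by test ligand (usually 0–10,000 nM) over 90 min at room temperature, pH 7.4 buffer with 0.1% BSA. Receptor source is crude membrane (5–10 μg) from tetracycline-induced Flp-In T-Rex 293 cells. Bound label filtered and counted; Ki from non-linear regression.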

human kisspeptin receptor, sequence (Q969F8 whole entry): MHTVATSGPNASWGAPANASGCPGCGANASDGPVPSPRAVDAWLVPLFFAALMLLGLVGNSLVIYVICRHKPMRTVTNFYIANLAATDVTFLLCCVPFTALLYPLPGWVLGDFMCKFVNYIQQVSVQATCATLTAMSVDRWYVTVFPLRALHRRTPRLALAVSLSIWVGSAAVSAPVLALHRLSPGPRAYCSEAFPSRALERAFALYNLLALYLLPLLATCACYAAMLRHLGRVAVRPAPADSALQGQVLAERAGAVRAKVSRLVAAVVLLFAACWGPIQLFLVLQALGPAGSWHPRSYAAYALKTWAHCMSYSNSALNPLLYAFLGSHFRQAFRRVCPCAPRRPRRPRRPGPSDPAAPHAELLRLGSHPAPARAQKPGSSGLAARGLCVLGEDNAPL

Compound	Ki [nM]
COCCOCCOCCC(=O)N[C@H](Cc1ccc(O)cc1)C(=O)N[C@@H](CCCCNC(=O)CN1CCN(CC(=O)O)CCN(CC(=O)O)CCN(CC(=O)O)CC1)C(=O)N[C@@H](CC(N)=O)C(=O)N[C@H](C(=O)N[C@@H](Cc1ccccc1)C(=O)NNC(=O)N[C@@H](CC(C)C)C(=O)NC1(C(=O)N[C@@H](Cc2c[nH]c3ccccc23)C(N)=O)CCN(C(=N)N)CC1)[C@@H](C)O [Compound 197] ({Propanoyl(3-(MeO(CH2CH2O)2))}-[dY]K(DOTA)NTF[azaGly]L[Api(1-amidino)]W-NH2)	< 10
COCCOCCOCCC(=O)N[C@@H](CCCCNC(=O)CN1CCN(CC(=O)O)CCN(CC(=O)O)CCN(CC(=O)O)CC1)C(=O)N[C@@H](CC(N)=O)C(=O)N[C@H](C(=O)N[C@@H](Cc1ccccc1)C(=O)NNC(=O)N[C@@H](CC(C)C)C(=O)NC1(C(=O)N[C@@H](Cc2c[nH]c3ccccc23)C(N)=O)CCN(C(=N)N)CC1)[C@@H](C)O [Compound 264] ({Propanoyl(3-(MeO(CH2CH2O)2))}-K(DOTA)NTF[azaGly]L[Api(1-amidino)]W-NH2)	< 10
Cc1ccc(CNCC(=O)N2CCC(NC(=O)[C@H](CC(C)C)NC(=O)NNC(=O)c3ccc(-c4ccccc4)c(OCCCNC(=O)CN4CCC(NC(=O)CN5CCN(CC(=O)O)CCN(CC(=O)O)CCN(CC(=O)O)CC5)CC4)c3)(C(=O)N[C@@H](Cc3c[nH]c4ccccc34)C(N)=O)CC2)cc1F [Compound 216] ({DOTA}-[X1][X16][azaGly]L[Api](Gly(N-(3-F-4-Me-benzyl)))W-NH2)	< 10
CSCC[C@H](NC(=O)c1ccc(CNC(=O)CN2CCN(CC(=O)O)CCN(CC(=O)O)CCN(CC(=O)O)CC2)cc1)C(=O)N[C@@H](Cc1c[nH]c2ccccc12)C(=O)N[C@@H](CCCCNC(=O)CCCCC(=O)N[C@@H](CC(N)=O)C(=O)N[C@H](C(=O)N[C@@H](Cc1ccccc1)C(=O)NNC(=O)N[C@@H](CC(C)C)C(=O)NC1(C(=O)N[C@@H](Cc2c[nH]c3ccccc23)C(N)=O)CCN(C(=O)CNCc2ccc(C)c(F)c2)CC1)[C@@H](C)O)C(=O)O [Compound 168]	< 10
Cc1ccc(CNCC(=O)N2CCC(NC(=O)[C@H](CC(C)C)NC(=O)NNC(=O)[C@H](Cc3ccccc3)NC(=O)[C@@H](NC(=O)[C@H](CC(N)=O)NC(=O)[C@@H](Cc3ccncc3)NC(=O)CCCCCNC(=O)CN3CCN(CC(=O)O)CCN(CC(=O)O)CCN(CC(=O)O)CC3)[C@@H](C)O)(C(=O)N[C@@H](Cc3ccncc3)C(N)=O)CC2)cc1F [Compound 295] ({DOTA-Ahx}-[d4Pal]NTF[azaGly]L[Api](Gly(N-(3-F-4-Me-benzyl)))[4Pal]-NH2)	< 10
Cc1ccc(CNCC(=O)N2CCC(NC(=O)[C@H](CC(C)C)NC(=O)NNC(=O)[C@H](Cc3cccc(F)c3)NC(=O)[C@@H](NC(=O)[C@H](CC(N)=O)NC(=O)[C@@H](CCC(=O)O)NC(=O)[C@H]3CC[C@H](CNC(=O)CN4CCN(CC(=O)O)CCN(CC(=O)O)CCN(CC(=O)O)CC4)CC3)[C@@H](C)O)(C(=O)N[C@@H](Cc3c[nH]c4ccccc34)C(N)=O)CC2)cc1F [Compound 161] ({DOTA-Trx}-[dE]NT[Phe(3-F)][azaGly]L[Api](Gly(N-(3-F-4-Me-benzyl)))W-NH2)	< 10
Cc1ccc(CNCC(=O)N2CCC(NC(=O)[C@H](CC(C)C)NC(=O)NNC(=O)[C@H](Cc3ccccc3)NC(=O)[C@@H](NC(=O)[C@H](CC(N)=O)NC(=O)[C@@H](Cc3c[nH]c4ccccc34)NC(=O)[C@@H](Cc3ccc(O)cc3)NC(=O)CCCCCNC(=O)CN3CCN(CC(=O)O)CCN(CC(=O)O)CCN(CC(=O)O)CC3)[C@@H](C)O)(C(=O)N[C@@H](Cc3ccc(C#N)cc3)C(N)=O)CC2)cc1F [Compound 104] ({DOTA-Ahx}-[dY][dW]NTF[azaGly]L[Api](Gly(N-(3-F-4-Me-benzyl)))[Phe(4-CN)]-NH2)	< 10
Cc1ccc(CNCC(=O)N2CCC(NC(=O)[C@H](CC(C)C)NC(=O)NNC(=O)[C@H](CC3CCCCC3)NC(=O)[C@@H](NC(=O)[C@H](CC(N)=O)NC(=O)CCCCCNC(=O)CN3CCN(CC(=O)O)CCN(CC(=O)O)CCN(CC(=O)O)CC3)[C@@H](C)O)(C(=O)N[C@@H](Cc3c[nH]c4ccccc34)C(N)=O)CC2)cc1F [Compound 313] ({DOTA-Ahx}-NT[Cha][azaGly]L[Api](Gly(N-(3-F-4-Me-benzyl)))W-NH2)	< 10
Cc1ccc(CNCC(=O)N2CCC(NC(=O)[C@H](CC(C)C)NC(=O)NNC(=O)[C@H](Cc3ccccc3)NC(=O)[C@@H](NC(=O)[C@H](CC(N)=O)NC(=O)[C@@H](Cc3c[nH]c4ccccc34)NC(=O)[C@@H](Cc3ccc(O)cc3)NC(=O)CCCCCNC(=O)CN3CCN(CC(=O)O)CCN(CC(=O)O)CCN(CC(=O)O)CC3)[C@@H](C)O)(C(=O)N[C@@H](Cc3ccncc3)C(N)=O)CC2)cc1F [Compound 105] ({DOTA-Ahx}-[dY][dW]NTF[azaGly]L[Api](Gly(N-(3-F-4-Me-benzyl)))[4Pal]-NH2)	< 10
Cc1ccc(CNCC(=O)N2CCC(NC(=O)[C@H](CC(C)C)NC(=O)NNC(=O)[C@H](Cc3ccccc3)NC(=O)[C@@H](NC(=O)[C@H](CC(N)=O)NC(=O)[C@H](CCC(=O)O)NC(=O)c3ccc(CNC(=O)CN4CCN(CC(=O)O)CCN(CC(=O)O)CCN(CC(=O)O)CC4)cc3)[C@@H](C)O)(C(=O)N[C@@H](Cc3ccc(C#N)cc3)C(N)=O)CC2)cc1F [Compound 241] ({DOTA-4Amb}-ENTF[azaGly]L[Api](Gly(N-(3-F-4-Me-benzyl)))[Phe(4-CN)]-NH2)	< 10
Cc1ccc(CNCC(=O)N2CCC(NC(=O)[C@H](CC(C)C)NC(=O)NNC(=O)[C@H](Cc3ccccc3)NC(=O)[C@@H](NC(=O)[C@H](CC(N)=O)NC(=O)CCCCCNC(=O)CN3CCN(CC(=O)O)CCN(CC(=O)O)CCN(CC(=O)O)CC3)[C@@H](C)O)(C(=O)N[C@@H](Cc3c[nH]c4ccccc34)C(N)=O)CC2)cc1F [Compound 26] ({DOTA-Ahx}-NTF[azaGly]L[Api](Gly(N-(3-F-4-Me-benzyl)))W-NH2)	< 10
Cc1ccc(CNCC(=O)N2CCC(NC(=O)[C@H](CC(C)C)NC(=O)NNC(=O)[C@H](Cc3ccccc3)NC(=O)CN3CCC(NC(=O)CN4CCN(CC(=O)O)CCN(CC(=O)O)CCN(CC(=O)O)CC4)CC3)(C(=O)N[C@@H](Cc3c[nH]cn3)C(N)=O)CC2)cc1F [Compound 248] ({DOTA}-[X1]F[azaGly]L[Api](Gly(N-(3-F-4-Me-benzyl)))H-NH2)	> 100
Cc1ccc(CNCC(=O)N2CCC(NC(=O)[C@H](CC(C)C)NC(=O)CNC(=O)[C@H](Cc3ccccc3)NC(=O)CCCCCNC(=O)CN3CCN(CC(=O)O)CCN(CC(=O)O)CCN(CC(=O)O)CC3)(C(=O)N[C@@H](Cc3c[nH]c4ccccc34)C(N)=O)CC2)cc1F [Compound 10] ({DOTA-Ahx}-FGL[Api](Gly(N-(3-F-4-Me-benzyl)))W-NH2)	< 10
CC(C)C[C@H](NC(=O)NNC(=O)[C@H](Cc1ccccc1)NC(=O)[C@@H](NC(=O)[C@H](CC(N)=O)NC(=O)[C@H](CCCCNC(=O)CN1CCN(CC(=O)O)CCN(CC(=O)O)CCN(CC(=O)O)CC1)NC(=O)[C@@H](Cc1ccc(O)cc1)NC(=O)CCOCCOCCNC(=O)CCc1ccc(I)cc1)[C@@H](C)O)C(=O)NC1(C(=O)N[C@@H](Cc2ccc(O)cc2)C(N)=O)CCN(C(=N)N)CC1 [Compound 324] ({Hydrocinnamoyl(4-I)-PEG2}-[dY]K(DOTA)NTF[azaGly]L[Api(1-amidino)]Y-NH2)	< 10
CNCC(=O)N1CCC(NC(=O)[C@H](CC(C)C)NC(=O)NNC(=O)[C@H](CC2CCCCC2)NC(=O)[C@@H](NC(=O)[C@H](CC(N)=O)NC(=O)[C@@H](CCCCNC(=O)CN2CCN(CC(=O)O)CCN(CC(=O)O)CCN(CC(=O)O)CC2)NC(=O)[C@@H](Cc2ccc(O)cc2)NC(=O)CCOCCOCCNC(=O)CCc2ccc(C)cc2)[C@@H](C)O)(C(=O)N[C@H](Cc2c[nH]c3ccccc23)C(N)=O)CC1 [Compound 358] ({Hydrocinnamoyl(4-Me)-PEG2}-[dY][dK](DOTA)NT[Cha][azaGly]L[Api](Sar)[dW]-NH2)	< 10
Cc1ccc(CNCC(=O)N2CCC(NC(=O)[C@H](CC(C)C)N[C@H](CNC(=O)[C@H](Cc3ccccc3)NC(=O)CCCCCNC(=O)CN3CCN(CC(=O)O)CCN(CC(=O)O)CCN(CC(=O)O)CC3)C(F)(F)F)(C(=O)N[C@@H](Cc3c[nH]c4ccccc34)C(N)=O)CC2)cc1F [Compound 147]	> 100
CNCC(=O)N1CCC(NC(=O)[C@H](CC(C)C)NC(=O)NNC(=O)[C@H](Cc2ccccc2)NC(=O)[C@@H](NC(=O)[C@H](CC(N)=O)NC(=O)[C@H](Cc2c3ccccc3cc3ccccc23)NC(=O)[C@@H](Cc2ccc(O)cc2)NC(=O)CN2CCN(CC(=O)O)CCN(CC(=O)O)CCN(CC(=O)O)CC2)[C@@H](C)O)(C(=O)N[C@@H](Cc2ccncc2)C(N)=O)CC1 [Compound 202] ({DOTA}-[dY][Ala(9-anthryl)]NTF[azaGly]L[Api](Sar)[4Pal]-NH2)	10 to 100
CC(C)C[C@H](NC(=O)NNC(=O)[C@H](Cc1ccccc1)NC(=O)[C@@H](NC(=O)[C@H](CC(N)=O)NC(=O)[C@@H](Cc1c[nH]c2ccccc12)NC(=O)[C@@H](Cc1ccc(O)cc1)NC(=O)c1ccc(CNC(=O)CCCCCNC(=O)CN2CCN(CC(=O)O)CCN(CC(=O)O)CCN(CC(=O)O)CC2)cc1)[C@@H](C)O)C(=O)NC1(C(=O)N[C@@H](Cc2c[nH]c3ccccc23)C(N)=O)CCN(C(=N)N)CC1 [Compound 270] ({DOTA-Ahx-4Amb}-[dY][dW]NTF[azaGly]L[Api(1-amidino)]W-NH2)	< 10
CNCC(=O)N1CCC(NC(=O)[C@H](CC(C)C)NC(=O)NNC(=O)[C@H](Cc2ccccc2)NC(=O)[C@@H](NC(=O)[C@H](CC(N)=O)NC(=O)[C@@H](Cc2ccc3ccccc3c2)NC(=O)[C@H](N)Cc2ccc(O)cc2)[C@@H](C)O)(C(=O)N[C@@H](Cc2ccc(O)cc2)C(N)=O)CC1 [Compound 407] (H-[dY][d2Nal]NTF[azaGly]L[Api](Sar)Y-NH2)	< 10
